Measured values reported in patent US20170050957A1, “4-AMINO-6-(HETEROCYCLIC)PICOLINATES AND 6-AMINO-2-(HETEROCYCLIC)PYRIMIDINE-4-CARBOXYLATES AND THEIR USE AS HERBICIDES” (Dow AgroSciences LLC, priority 2013, published 2017).
Where two headings read alike, the source gives them in different places.

How the values were obtained:
[1] = test system: Key Broadleaf Weed and Crop Species; assay: Post-emergent Test II herbicidal activity (Table 15); type: in vivo; conditions: post-emergence, 336 h, 14 d; for pest or weed control at 35 g/ha: 35 g ai/ha; for pest or weed control at 70 g/ha: 70 g ai/ha; for pest or weed control at 140 g/ha: 140 g ai/ha
Procedure, shortened: (§1)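 Plants at first-second true leaf stage, grown 7-21 d in greenhouse (~15 h photoperiod, 23-29 °C day), were track-sprayed at 187 L/ha with compound in acetone/DMSO/water/isopropanol/crop oil/Triton X-155 at a high rate plus 1/2× to 1/16× dilutions. Injury scored visually after 14 d versus untreated plants, 0 (none) to 100% (complete kill).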

[2] = test system: Key Grass and Sedge Weeds as well as Grass Crops; assay: Post-emergent Test II herbicidal activity (Table 16); type: in vivo; conditions: post-emergence, 336 h, 14 d; for pest or weed control at 35 g/ha: 35 g ai/ha; for pest or weed control at 70 g/ha: 70 g ai/ha; for pest or weed control at 140 g/ha: 140 g ai/ha
Procedure, shortened: as §1

[3] = Abutilon theophrasti, velvetleaf (Abutilon theophrasti), read-out: Visual Growth Reduction (%) 14 Days After Application, ABUTH
[4] = Amaranthus retroflexus, redroot pigweed (Amaranthus retroflexus), read-out: Visual Growth Reduction (%) 14 Days After Application, AMARE
[5] = Brassica napus, oilseed rape, canola (Brassica napus), read-out: Visual Growth Reduction (%) 14 Days After Application, BRSNN
[6] = Chenopodium album, lambsquarters (Chenopodium album), read-out: Visual Growth Reduction (%) 14 Days After Application, CHEAL
[7] = Euphorbia heterophylla, wild poinsettia (Euphorbia heterophylla), read-out: Visual Growth Reduction (%) 14 Days After Application, EPHHL
[8] = Helianthus annuus, sunflower (Helianthus annuus), read-out: Visual Growth Reduction (%) 14 Days After Application, HELAN
[9] = Cyperus esculentus, yellow nutsedge (Cyperus esculentus), read-out: Visual Growth Reduction (%) 14 Days After Application, CYPES
[10] = Echinochloa crus-galli, barnyardgrass (Echinochloa crus-galli), read-out: Visual Growth Reduction (%) 14 Days After Application, ECHCG
[11] = Oryza sativa, rice (Oryza sativa), read-out: Visual Growth Reduction (%) 14 Days After Application, ORYSA
[12] = Setaria faberi, giant foxtail (Setaria faberi), read-out: Visual Growth Reduction (%) 14 Days After Application, SETFA
[13] = Triticum aestivum, wheat, spring (Triticum aestivum), read-out: Visual Growth Reduction (%) 14 Days After Application, TRZAS
[14] = Zea mays, maize, corn (Zea mays), read-out: Visual Growth Reduction (%) 14 Days After Application, ZEAMX

Compound	pest or weed control at 35 g/ha [1, 3] [%]	pest or weed control at 70 g/ha [1, 3] [%]	pest or weed control at 140 g/ha [1, 3] [%]	pest or weed control at 35 g/ha [1, 4] [%]	pest or weed control at 70 g/ha [1, 4] [%]	pest or weed control at 140 g/ha [1, 4] [%]	pest or weed control at 35 g/ha [1, 5] [%]	pest or weed control at 70 g/ha [1, 5] [%]	pest or weed control at 140 g/ha [1, 5] [%]	pest or weed control at 35 g/ha [1, 6] [%]	pest or weed control at 70 g/ha [1, 6] [%]	pest or weed control at 140 g/ha [1, 6] [%]	pest or weed control at 35 g/ha [1, 7] [%]	pest or weed control at 70 g/ha [1, 7] [%]	pest or weed control at 140 g/ha [1, 7] [%]	pest or weed control at 35 g/ha [1, 8] [%]	pest or weed control at 70 g/ha [1, 8] [%]	pest or weed control at 140 g/ha [1, 8] [%]	pest or weed control at 35 g/ha [2, 9] [%]	pest or weed control at 70 g/ha [2, 9] [%]	also measured
COC(=O)c1nc(-c2ccc(Cl)c3ccoc23)c(F)c(N)c1Cl [Compound 2.24]	75 to 84	75 to 84	95 to 100	95 to 100	95 to 100	95 to 100	60 to 74	75 to 84	75 to 84	95 to 100	95 to 100	95 to 100	60 to 74	75 to 84	75 to 84	75 to 84	75 to 84	85 to 94	60 to 74	75 to 84	pest or weed control at 140 g/ha [2, 9]: 85 to 94%; pest or weed control at 35 g/ha [2, 10]: 0 to 29%; pest or weed control at 70 g/ha [2, 10]: 0 to 29%; pest or weed control at 140 g/ha [2, 10]: 0 to 29%; pest or weed control at 35 g/ha [2, 11]: 0 to 29%; pest or weed control at 70 g/ha [2, 11]: 0 to 29%; pest or weed control at 140 g/ha [2, 11]: 0 to 29%; pest or weed control at 35 g/ha [2, 12]: 0 to 29%; pest or weed control at 70 g/ha [2, 12]: 0 to 29%; pest or weed control at 140 g/ha [2, 12]: 0 to 29%; pest or weed control at 35 g/ha [2, 13]: 0 to 29%; pest or weed control at 70 g/ha [2, 13]: 0 to 29%; pest or weed control at 140 g/ha [2, 13]: 0 to 29%; pest or weed control at 35 g/ha [2, 14]: 0 to 29%; pest or weed control at 70 g/ha [2, 14]: 30 to 44%; pest or weed control at 140 g/ha [2, 14]: 60 to 74%; melting point: 167 °C
COC(=O)c1nc(-c2ccc3cc[nH]c3c2F)c(F)c(N)c1OC [Compound 1.20]	45 to 59	60 to 74	60 to 74	75 to 84	85 to 94	95 to 100	95 to 100	95 to 100	95 to 100	95 to 100	95 to 100	95 to 100	95 to 100	95 to 100	95 to 100	95 to 100	95 to 100	95 to 100	0 to 29	0 to 29	pest or weed control at 140 g/ha [2, 9]: 0 to 29%; pest or weed control at 35 g/ha [2, 10]: 0 to 29%; pest or weed control at 70 g/ha [2, 10]: 60 to 74%; pest or weed control at 140 g/ha [2, 10]: 75 to 84%; pest or weed control at 35 g/ha [2, 11]: 0 to 29%; pest or weed control at 70 g/ha [2, 11]: 0 to 29%; pest or weed control at 140 g/ha [2, 11]: 0 to 29%; pest or weed control at 35 g/ha [2, 12]: 45 to 59%; pest or weed control at 70 g/ha [2, 12]: 75 to 84%; pest or weed control at 140 g/ha [2, 12]: 85 to 94%; pest or weed control at 35 g/ha [2, 13]: 0 to 29%; pest or weed control at 70 g/ha [2, 13]: 45 to 59%; pest or weed control at 140 g/ha [2, 13]: 60 to 74%; pest or weed control at 35 g/ha [2, 14]: 30 to 44%; pest or weed control at 70 g/ha [2, 14]: 45 to 59%; pest or weed control at 140 g/ha [2, 14]: 60 to 74%; melting point: 203 to 205 °C
